Structures can show the parent of a compound that is named as a salt.
Legend:
Assay type in all cases: in vivo
[1] = tested on: lipoperoxides content in brain; test: lipoperoxides content in brain (malonyldialdehyde, Yagi procedure) of rats on hyperlipidemizing and hypercholesterolemizing diet; details: male rats, solution as ad libitum drink; for percent variation compared with the control: brain lipoperoxides, 20 days diet; for malonyldialdehyde nmoles/g. of fresh tissue: brain, 20 days hyperlipidemizing and hypercholesterolemizing diet
Procedure: 3°) effect of the compositions on the lipoperoxides cerebral content (measured as malonyldialdehyde nmoles/g)
(§1) 36 Male rats weighing 180-200 g were used.
(§2) The animals were subjected for 20 days to a standard hyperlipidemizing and hypercolesterolemizing diet consisting of: 20% caseine, a 3.5% mixture of oligoelements and mineral salts, a 0.1% mixture of vitamins, 0.2% choline bitartrate, 2% cellulose powder, 0.5% chloesterol, 0.25. sodium cholate, 62.44% saccharose and 10.9% lard. During that time, the animals were divided into in 6 groups which received as an "ad libitum" available drink:
(§3) 1° group: control (only water)
(§4) 2° group: Test A (a 0.75% CARNOSINE aqueous solution)
(§5) 3° group: Test B (a 0.25% CARNITINE aqueous solution)
(§6) At end of the test the animals were killed to take both blood samples and the various organs (liver, brain, and heart) on which the lipoperoxides content was evaluated dosing malonyldialdehyde, according to the procedure by Yagi (YAGI K, (1982), in "Lipid peroxides in biology and medicine", Academic Press, New York, pp. 324-40).

[2] = tested on: lipoperoxides content in the plasma; test: lipoperoxides content in plasma (malonyldialdehyde, Yagi procedure) of rats on hyperlipidemizing and hypercholesterolemizing diet; details: male rats, solution as ad libitum drink; for percent variation compared with the control: plasma lipoperoxides, 20 days diet; for malonyldialdehyde: plasma, 20 days hyperlipidemizing and hypercholesterolemizing diet
Procedure: (§7) In order to study the pharmacological and/or dietetic characteristics of the compositions according to the present invention, tests were carried out to evaluate the following effects in rats subjected to an ipovitaminic, hyperlipidemizing and hypercholesterolemizing diet (which is known to be capable of promoting the tissue and plasma peroxidation processes):
1°) effect of the compositions on the lipoperoxides […] content (measured as malonildialdehye nmoles/ml)
as §1, §2, §3, §4, §5, §6

[3] = tested on: lipoperoxides content in the liver; test: lipoperoxides content in liver (malonyldialdehyde, Yagi procedure) of rats on hyperlipidemizing and hypercholesterolemizing diet; details: male rats, solution as ad libitum drink; for percent variation compared with the control: liver lipoperoxides, 20 days diet; for malonyldialdehyde nmoles/g. of fresh tissue: liver, 20 days hyperlipidemizing and hypercholesterolemizing diet
Procedure: as §7
2°) effect of the compositions on the lipoperoxides hepatic content (measured as malonyldialdehyde nmoles/g)
as §1, §2, §3, §4, §5, §6

[4] = tested on: lipoperoxides content in the heart; test: lipoperoxides content in heart (malonyldialdehyde, Yagi procedure) of rats on hyperlipidemizing and hypercholesterolemizing diet; details: male rats, solution as ad libitum drink; for percent variation compared with the control: heart lipoperoxides, 20 days diet; for malonyldialdehyde nmoles/g. of fresh tissue: heart, 20 days hyperlipidemizing and hypercholesterolemizing diet
Procedure: as §7
4°) effect of the compositions on the lipoperoxides content in the heart (measured as malonyldialdehyde nmoles/g).
as §1, §2, §3, §4, §5, §6

Row | SMILES | percent variation compared with the control [1] | malonyldialdehyde nmoles/g. of fresh tissue [1] | percent variation compared with the control [2] | malonyldialdehyde [2] [nmol/mL] | percent variation compared with the control [3] | malonyldialdehyde nmoles/g. of fresh tissue [3] | percent variation compared with the control [4] | percent variation compared with the control ([4]; listed as carnosine) [%] | malonyldialdehyde nmoles/g. of fresh tissue [4]
1 | NCCC(=O)N[C@@H](Cc1c[nH]cn1)C(=O)O [Test A, β-alanyl-L-histidine] | -12.7% | 89 ± 7 nmoles/g. of fresh tissue | -14.2% | 3.6 ± 0.6 | -9.5% | 39 ± 8 nmoles/g. of fresh tissue | -20.0% | -20 | 36 ± 7 nmoles/g. of fresh tissue
2 | C[N+](C)(C)CC(O)CC(=O)[O-] (centres unmarked) [Test B, 3-carboxy-2-hydroxy-N,N,N-trimethyl-1-propanamine inner salt] | +3.9% | 106 ± 5 nmoles/g. of fresh tissue | no effects | 4.2 ± 0.8 | +2.3% | 43 ± 6 nmoles/g. of fresh tissue | no changes compared with the controls | – | 45 ± 4 nmoles/g. of fresh tissue

— US5866537A, “Pharmaceutical and/or dietetic compositions with antioxidant activity containing carnosine or derivatives and branched amino acids” (Farmila-Farmaceutici Milano S.R.L., priority 1995, dated 1999)
